Like-named read-outs stand apart in the source and are kept apart here.
Assays:
[1] = Cytotoxicity (CC50) in mock-infected HeLa cells, tetrazolium (MTT) colorimetric assay; type: cell-based; details: human
Protocol: (§1) The percent protection against cytopathology caused by viruses (antiviral activity or IC50) achieved by tested compounds and their cytotoxicity (CC50) were both calculated from dose-response curves.
Automated tetrazolium-based […] assays were used for determination of IC50 and CC50 of test compounds. Flat-bottom, 96-well plastic microtiter trays were filled with 180 μl of Eagle's Basal Medium, supplemented with 5% FCS (0% for FLU) and 20 mM Herpes buffer. Subsequently, stock solutions (7.8×final test concentration) of compounds were added in 45 μl volumes to a series of triplicate wells so as to allow simultaneous evaluation of their effects on virus- and mock-infected cells. Five five-fold dilutions were made directly in the microtiter trays using a robot system. Untreated virus controls, and HeLa cell controls were included in each test. Approximately 100 TCID50 Respiratory Syncytial Virus was added to two of the three rows in a volume of 50 μl. The same volume of medium was added to the third row to measure the cytotoxicity of the compounds at the same concentrations as those used to measure the antiviral activity. After two hours of incubation, a suspension (4×10^5 cells/ml) of HeLa cells was added to all wells in a volume of 50 μl. The cultures were incubated at 37° C. in a 5% CO2 atmosphere. Seven days after infection the cytotoxicity and the antiviral activity was examined spectrophotometrically. To each well of the microtiter tray, 25 μl of a solution of MIT (3-(4,5-dimethylthiazol-2-yl)-2,5-diphenyltetrazolium bromide) was added. The trays were further incubated at 37° C. for 2 hours, after which the medium was removed from each cup. Solubilization of the formazan crystals was achieved by adding 100 μl 2-propanol. […] Finally, the absorbances were read in an eight-channel computer-controlled photometer (Multiskan MCC, Flow Laboratories) at two wavelengths (540 and 690 nm). The absorbance measured at 690 nm was automatically subtracted from the absorbance at 540 nm, so as to eliminate the effects of non-specific absorption.

[2] = tested on: Respiratory Syncytial Virus; assay: microbe, parasite or virus in culture; type: cell-based; details: for SI: selectivity index = CC50 divided by IC50
Protocol: as §1
Automated tetrazolium-based […] assays were used for determination of IC50 and CC50 of test compounds. Flat-bottom, 96-well plastic microtiter trays were filled with 180 μl of Eagle's Basal Medium, supplemented with 5% FCS (0% for FLU) and 20 mM Herpes buffer. Subsequently, stock solutions (7.8×final test concentration) of compounds were added in 45 μl volumes to a series of triplicate wells so as to allow simultaneous evaluation of their effects on virus- and mock-infected cells. Five five-fold dilutions were made directly in the microtiter trays using a robot system. Untreated virus controls, and HeLa cell controls were included in each test. Approximately 100 TCID50 Respiratory Syncytial Virus was added to two of the three rows in a volume of 50 μl. The same volume of medium was added to the third row to measure the cytotoxicity of the compounds at the same concentrations as those used to measure the antiviral activity. After two hours of incubation, a suspension (4×10^5 cells/ml) of HeLa cells was added to all wells in a volume of 50 μl. The cultures were incubated at 37° C. in a 5% CO2 atmosphere. Seven days after infection the cytotoxicity and the antiviral activity was examined spectrophotometrically. To each well of the microtiter tray, 25 μl of a solution of MIT (3-(4,5-dimethylthiazol-2-yl)-2,5-diphenyltetrazolium bromide) was added. The trays were further incubated at 37° C. for 2 hours, after which the medium was removed from each cup. Solubilization of the formazan crystals was achieved by adding 100 μl 2-propanol. Complete dissolution of the formazan crystals were obtained after the trays have been placed on a plate shaker for 10 min. Finally, the absorbances were read in an eight-channel computer-controlled photometer (Multiskan MCC, Flow Laboratories) at two wavelengths (540 and 690 nm). The absorbance measured at 690 nm was automatically subtracted from the absorbance at 540 nm, so as to eliminate the effects of non-specific absorption.

[3] = human respiratory syncytial virus, HeLa, 168 h

Row | Compound | melting point | SI [2] | also measured
1 | NCCN1CCC(Nc2nc3ccccc3n2Cc2ccnc3ccccc23)CC1 | 196 °C |  | 
2 | CCOC(c1cccc2cccnc12)n1c(NC2CCN(C(CN)C(C)C)CC2)nc2ccccc21 (racemic) | 202 °C |  | 
3 | CC(C)C(N)CN1CCC(Nc2nc3ccccc3n2CC2CCc3ccccc3N2)CC1.Cl.Cl.Cl.Cl.O (racemic) (hydrate or solvate) | 230 °C |  | 
4 | CC(C)C(N)CN1CCC(Nc2nc3ccccc3n2Cc2ccc3ccccc3n2)CC1 (racemic) [Compound 6, (±)-N-[1-(2-amino-3-methylbutyl)-4-piperidinyl]-1-(2-quinolinylmethyl)-1H-benzimidazol-2-amine] | 135 °C | 794 | CC50 at 7 days [1]: 10000 nM; IC50 ([2]; human respiratory syncytial virus, 168 h, antiviral activity against Respiratory Syncytial Virus, HeLa cells, 7 days after infection, MTT, read-out: IC50): 12.6 nM
5 | CCOCCOC(c1cccc2cccnc12)n1c(NC2CCN(CC(N)C(C)C)CC2)nc2ccccc21 (racemic) [Compound 31, (±)-N-[1-(2-amino-3-methylbutyl)-4-piperidinyl]-1-[(2-ethoxyethoxy)-8-quinolinyl-methyl]-1H-benzimidazol-2-amine] |  | 15849 | CC50 at 7 days [1]: 12700 nM; IC50 [2, 3]: 0.8 nM
6 | CC(C)C(N)CN1CCC(Nc2nc3ccccc3n2C2CCCc3ccc(Br)nc32)CC1.Cl.Cl.Cl.O.O.O (racemic) [Compound 56, (±)-N-[1-(2-amino-3-methylbutyl)-4-piperidinyl]-1-(2-bromo-5,6,7,8-tetrahydro-8-quinolinyl)-1H-benzimidazol-2-amine trihydrochloride trihydrate] |  | 7943 | CC50 at 7 days ([1]; cytotoxicity in mock-infected HeLa cells, 7 days, MTT, read-out: CC50): 12700 nM; IC50 [2, 3]: 1.6 nM
7 | (±)-N-[1-(2-amino-3-methylbutyl)-4-piperidinyl]-3-(quinolinylmethyl)-3H-imidazo[4,5-b]pyridin-2-amine [Compound 42] |  | >25119 | IC50 ([2]; antiviral activity against Respiratory Syncytial Virus, HeLa cells, 7 days after infection, MTT, read-out: IC50): 0.4 nM

Reference: US7407969B2, “Respiratory syncytial virus replication inhibitors” (Janssen Pharmaceutica, N.V., priority 1999, dated 2008)
